Measurements from patent US5885994A, “Tetrahydroquinoxaline dopamine D4 receptor antagonists” (Warner-Lambert Company, priority 1998, dated 1999).
pIC50: −log10 of the molar value.

Tests used:
[1] = system: amphetamine-stimulated locomotion; experiment: Blockade of amphetamine-stimulated locomotion in rats; assay type: in vivo, rat
Source text: PROTOCOL FOR THE BLOCKADE OF AMPHETAMINE-STIMULATED LOCOMOTION IN RATS
The blockade of amphetamine-stimulated locomotion procedure is a modification of the Locomotor Activity Protocol in the Omnitech Digiscan Activity Monitors described above. The blockade of amphetamine-stimulated locomotion procedure uses the central nervous system stimulant d-amphetamine to assess antipsychotic activity of dopaminergic agents.
Male Sprague-Dawley rats (Harlan Labs) were used for these studies. Drugs were dissolved in saline or water, and administered either orally (PO) or intraperitoneally (IP) in volumes of 5 mL/kg. Saline control rats and amphetamine (0.5 mg/kg IP) control rats are included with each study (n=4-6 rats per treatment group). For the IP studies, amphetamine is given 20 minutes prior to the drug, after which a 30 minute locomotor activity test is conducted. For the oral study, drug is dosed 30 minutes prior to the test, while amphetamine is given 15 minutes prior to the test, which allows time for oral absorption. Locomotor activity (centimeters travelled per 30 minute test) is measured in 16"×16" open chambers. Amphetamine generally produces a 2- to 3-fold increase in locomotion over saline controls. Drug effects are reported as percent reversal of amphetamine-stimulated locomotion. Significant changes in amphetamine-stimulated locomotion, relative to amphetamine treated controls, were determined by t-test. The dose which would reverse amphetamine-stimulated locomotion by 50% (ED50) and the 95% confidence limits were estimated by regression analysis.

human D2 receptor = human D2 receptor (Homo sapiens, UniProt P14416); experiment: Inhibition of [3H]spiperone binding to human dopamine D2 receptors; details: human D2 (Long form), CHO K1 membranes
Source text: A cell line expressing human dopamine D2 (Long form) receptors was purchased from Oregon Health Sciences University, Portland, Oreg. The D2 receptor cDNA was subcloned into an expression vector, pRc/CMV. The plasmids were transfected by electroporation into CHO K1 cells. A single stable transfectant, resistant to the antibiotic 418, was isolated and selected for use in the binding studies. For D4 binding, CHO K1 cells stably transfected to express the human recombinant dopamine D4.2 receptor subtype, as described by Shih, et al., "The expression and functional characterization of human dopamine D4.2 receptor in CHO K1 cells," Soc. Neurosci., 1995;21(Part 1):621.
CHO K1 cells expressing either human D2 and D4.2 receptors were grown in 162 cm^2 culture flasks in F12 medium (Gibco Laboratories, Grand Island, N.Y.) supplemented with 10% fetal bovine serum (FBS, Hyclone, Logan, Utah) in an atmosphere of 5% CO2 /95% air at 37° C. Cells were grown until confluent, after which growth medium was removed and replaced with 0.02% ethylene diamine tetracetate (EDTA) in a phosphate-buffered saline solution (Sigma Chemical Co., St. Louis, Mo.) and scraped from the flasks. The cells were centrifuged at about 1000×g for 10 minutes at […] and then resuspended in TEM buffer (25 mM Tris-HCl, pH 7.4, 5 mM EDTA, and 6 mM MgCl2) for D2 or the D4.2 buffer (50 mM Tris-HCl, pH 7.4, 5 mM EDTA, 1.5 mM CaCl2, 5 mM KCl, and 120 mM NaCl) and homogenized. The membranes were pelleted by centrifugation at 20,000×g at […] for 20 minutes. Then the pellets were resuspended in appropriate buffer at 1 mL/flask and stored at -70° C. until used in the receptor binding assay.
Receptor Binding Assays: D2,D4.2 Dopamine Receptors
After 60 minutes incubation at 25° C., the incubations were terminated by rapid filtration through Whatmann F/B lass fibre filters (soaked for 1 hour in 0.5% polyethylenimine) on a cell harvester, with three washes of 1 mL ice-cold buffer. Individual filter disks containing the bound ligand were placed in counting vials with 4 mL of scintillation fluid (Ready Gel, Beckman Instrument Inc., Fullerton, Calif.) and then counted in a Beckman LS-6800 liquid scintillation counter at an efficiency of 45%. Nonspecific binding was defined in presence of 1 mM of haloperidol.
Saturation and competition binding data were analyzed using an iterative nonlinear least-square curve-fitting Ligand program. In competition experiments, apparent Ki values were calculated from IC50 values by method of Cheng and Prusoff, "Relationship between the inhibition constant (Ki) and the concentration of inhibitor which causes 50% inhibition (IC50) of an enzymatic reaction," Biochem. Pharmacol., 1973;22:3099-3108. Experimental compounds were made up as stock solutions in dimethyl sulfoxide (DMSO). […] Each observation was carried out in triplicate. To allow these calculations, Ki values were measured for the interaction of various ligands with the receptor. […]

Chain of human D2 receptor (P14416 whole entry): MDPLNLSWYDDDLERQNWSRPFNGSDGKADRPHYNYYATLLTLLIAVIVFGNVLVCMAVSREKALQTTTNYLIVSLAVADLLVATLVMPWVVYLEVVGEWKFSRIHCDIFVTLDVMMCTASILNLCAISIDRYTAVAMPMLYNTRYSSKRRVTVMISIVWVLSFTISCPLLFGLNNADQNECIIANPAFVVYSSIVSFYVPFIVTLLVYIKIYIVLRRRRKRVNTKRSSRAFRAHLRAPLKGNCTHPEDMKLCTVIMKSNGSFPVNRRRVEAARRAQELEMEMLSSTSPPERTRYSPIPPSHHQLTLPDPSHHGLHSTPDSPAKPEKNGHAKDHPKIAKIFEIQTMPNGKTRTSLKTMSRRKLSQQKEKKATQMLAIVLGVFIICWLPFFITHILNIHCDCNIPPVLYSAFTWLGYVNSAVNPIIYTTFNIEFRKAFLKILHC

`Cc1ccc(N2CCN(Cc3ccc4c(c3)NCCN4)CC2)cc1C` [Example 2, 6-[4-(3,4-Dimethylphenyl)piperazin-1-ylmethyl]-1,2,3,4-tetrahydroquinoxaline] was tested, and the “blockade of amphetamine-stimulated locomotion (result in words)” value ([1]; rat, 1, 3, 10 and 30 mg/kg IP) was “dose-dependent blockade”, the ED50 ([1]; rat, PO, read-out: oral blockade of amphetamine-stimulated locomotion ED50) was 5.8 mg/kg and the pIC50 (human D2 receptor) was 5.53.
